Here are results for twelve molecules from patent US7718768B2, “Biologically active peptide [sequence]” (CMS Peptides Patent Holding Company Limited, priority 2001, dated 2010).

The test system of assay [1] is T lymphocyte. Kind of assay: T lymphocyte IL-2 secretion test (HT-2 cell bioassay of ConA supernatant). Format: in vivo, BALB/c mice. To be noted: IFN-γ and IL-2 groups 3×10^5 IU/kg/day, X ± SD. Here is the method: The above substances were all dissolved in 0.5 ml saline and injected intraperitoneal (i.p.) for 15 continuous days, once per day.
Spleen cells of density 1×10^6/ml were placed onto a 96 wells cell culture plate, 100 μl/well, three parallel wells each of the assay sample and control sample per mouse. To the assay wells, 100 μl/well ConA of 100 μg/ml in RPMI-1640 was added, and 100 μl/well plain RPMI-1640 was used for the controls. The cells were incubated for 66 hrs at 37° C., 5% CO2. The cells were then pelleted by centrifugation at 150 g for 10 minutes.
HT-2 cells at log phase were collected by centrifugation at 150 g for 10 minutes, and washed three times with cold Hank's solution by re-suspension and centrifugation. The collected HT-2 cells were re-suspended in RPMI-1640 and incubated at 37° C., 5% CO2 for 30 minutes. The cells were further washed twice with RPMI-1640 by re-suspension and centrifugation, and re-suspended to final concentration of 2×10^5/ml with RPMI-1640.
rIL-2 was diluted to the following concentration with RPMI-1640: 500 IU/ml, 250 IU/ml, 125 IU/ml, 62.5 IU/ml, 31.25 IU/ml, and […].
A 96 well cell culture plate was set up with three parallel wells per combination:
Negative control: 100 μl RPMI-1640+100 μl HT-2 cell suspension
rIL-2 standard: 100 μl rIL-2 solution+100 μl HT-2 cell suspension
Assay well: 100 μl diluted supernatant+100 μl HT-2 cell suspension
The plate was incubated at 37° C., 5% CO2 for 68 hours, then centrifuged at 150 g for 15 minutes and the supernatant removed. 100 μl 0.5 mg/ml MTT in RPMI-1640 without phenolsulfonphthalein was added into each well. After shaking for 3-4 minutes to re-suspend the cells, continue to incubate for another 4 hours. Samples were then centrifuged at 150 g for 15 minutes and the supernatant was removed. To each well, 120 μl 40 mM HCl-2-propanol was added, mixed for 3-4 minutes and OD analyzed at 570 nm, referenced at 630 nm with an ELISA plate reader.
The average OD of the three parallel wells of each dilution was taken and plotted against concentration on a semi-log paper, concentration on the X-axis. The concentration at 50% OD saturation was obtained for both the testing supernatant and rIL-2.

The subject of assay [2] is NK cell. Kind of assay: NK cell activity in mice with ascitic fluid type liver cancer H22. Format: in vivo, BALB/c mice. As to the method: Healthy BALB/c mice were randomized into peptide group, rmIFN-γ group, rhIL-2 group, and saline group, 15 mice per group, and prepared into H22 carrying mice model as described in section Method 3. After implantation of the cancer cells, the test substances were administered for 15 days, the mice were killed by cervical dislocation. The spleen was isolated aseptically and manually dispersed in cold D-Hank's solution using an injection needle. The dispersed cell suspension was further sieved through a 100-gauge 150 μm diameter stainless steel sieve. After centrifugation at 200 g for 10 minutes, the supernatant was discarded. The cell pellet was re-suspended in 10 volume of Tris-NH4Cl buffer and then kept standing still for 10 minutes at room temperature. The suspended cells were collected by centrifugation at 150 g for 10 minutes. The cells were washed 2-4 times with cold D-Hank's solution by re-suspending and collecting by centrifugation with condition as described above. The washed cells were then diluted to the desired cell densities by RPMI-1640 culture medium, containing 10% fetal bovine serum.
Mice spleen cells were prepared to 4×10^6/ml as described in section 4.1 above. Target cells YAC-1 were brought to log phase and adjusted to 1×10^5/ml. Using a 96 wells cell culture plate, 100 μl mouse spleen cells and 100 μl culture medium were added to the control well containing only the spleen cells; 100 μl target cells and 100 μl culture medium were added to the control well containing only target cells; 100 μl mouse spleen cells and 100 μl target cells were added to the NK activity assay well. Three parallel sets of the above were prepared per mouse. After that, the 96 wells cell culture plates were incubated for 4 hrs at 37° C., 5% CO2.
Samples were centrifuged at 150 g for 10 minutes to collect the cells. The supernatant was discarded and 50 μl/well MTT of 1 mg/ml was added. The reaction-mixture was then shaken for 2 minutes, and incubated at 37° C., 5% CO2 for 4 hours. The supernatant was discarded after centrifugation at 150 g for 10 minutes. 120 μl 40 mM HCl-2-propanol was added and shaken for 3 minutes. An ELISA reader was used to obtain OD570nm of each well referenced at 630 nm.
The NK cell activity index of each mouse was obtained by first deriving the average OD of the three parallel wells of each combination, then applying this average OD to the following formula: NK cell activity index=[1−(average OD of spleen and target cell well−average OD of spleen cell only well)÷(average OD of target cell only well)]×100% 5. The Effect of Peptides on the Survival of DBA/2 Mice with Transplanted L1210 Leukemia

Assay [3] deals with L1210 leukemia. Kind of assay: survival of mice with transplanted L1210 leukemia. The settings on record: for Survival index: versus saline group. Format: in vivo, DBA/2 mice. As to the method:
Intraperitoneal injection, once per day. […] Treatment of all groups with testing substance lasted for 30 days or until the animal died unless otherwise specified.
Stock L1210 cells were incubated in DMEM/F12 medium supplemented with 10% fetal bovine serum, 37° C./5% CO2 for 72 hrs, then washed 3-4 times with Hank's solution, and adjusted to 1×10^5 cells per liter. 0.1 ml of the cell suspension was implanted into the abdominal cavity of several healthy DBA mice for 6-8 days. The mice were then killed by cervical vertebra dislocation and their ascitic fluid collected aseptically. The cell concentration of the collected ascitic fluid was adjusted to 1×10^5 per ml with Hank's solution. 0.1 ml of the cell suspension was implanted into each of the testing animal and the survival data of the animals recorded. Treatment started in the testing animals as described in section Method 1. Mean survival day was obtained by the Kaplan-meier method in the Survival option of the SPSS software. If the animal survived longer than the experiment, the survival days was entered as the duration of the experiment. The survival index was calculated according to the following formula: Survival index=(mean survival days of treatment group−mean survival days of control group)÷mean survival days of control group 6. The Effect of Peptides on the Humoral Immunity of C57BL/6 Mice Bearing Transplanted B16 Melanoma, and that on the Metastatic Potential of the Inoculated Melanoma Cells

Where [4] appears, read: peptide 50 μg/kg/day i.p. 15 days.
[5] abbreviates: peptide 500 μg/kg/day i.p. 15 days.
Where [6] appears, read: peptide 0.5 μg/kg/day i.p. 15 days.
Where [7] appears, read: 3 × 10^5 IU/kg i.p. once per day.

Marks after values point to notes of the source that are not given here. No end group written: not given here.

Take FNFVPP [CMS003]: the “activity of T lymphocyte in secreting IL-2” value (from here on “activity of T lymphocyte”) in assay [1] (setting [4]) is 86 ± 9*^ IU. In addition, the NK activity index in assay [2] (500 μg/kg i.p. once per day) is 37.9 ± 14.5*^^$ %.
Consider LRVAPEEHPTL [CMS009], for which the “activity of T lymphocyte” value in assay [1] (setting [5]) is reported as 114 ± 13*^@^ IU.
Turning to PSIVGRPRHQGVM [CMS015], the “activity of T lymphocyte” value in assay [1] (setting [5]) is 85 ± 17*^ IU.
On to PTTKTYFPHF [CMS001], for which the “activity of T lymphocyte” value in assay [1] (setting [4]) is 60 ± 10 IU.
For “Phe Glu Glu Glu (FEEE; listed as Sus scrofa) [CMS032]”, the NK activity index in assay [2] (5 μg/kg i.p. once per day) is recorded as 52.6 ± 12.5*^^$& %; in assay [2] (50 μg/kg i.p. once per day) it was 41.0 ± 18.7*^^$& %.
In assay [3] (0.5 μg/kg i.p. once per day), “Phe Val Asn Asp (FVND; listed as Sus scrofa) [CMS035]” yielded a Survival days of 29.3 ± 15.4 days and a Survival index of 76.1%.
For the molecule “Pro Glu Asn Phe (PENF; listed as Sus scrofa) [CMS034]”, the “activity of T lymphocyte” value in assay [1] (setting [6]) is on record as 85 ± 10*^ IU. For the same molecule, the NK activity index in assay [2] (50 μg/kg i.p. once per day) was 57.3 ± 17.9*^^$& %.
As for RVAPEEHPTL [CMS011], in assay [1] (setting [6]), the “activity of T lymphocyte” value was 101 ± 19*^@^ IU.
For the molecule “Tyr Ser Leu (YSL; listed as Sus scrofa) [CMS024]”, the NK activity index in assay [2] (0.5 μg/kg i.p. once per day) is reported as 39.3 ± 18.7*^$ %; in assay [2] (5 μg/kg i.p. once per day), 34.9 ± 12.1*^^$ %; in assay [2] (50 μg/kg i.p. once per day), 43.6 ± 13.9*^^$& %.
As for VAPEEHPTLLTEAPLNPK [CMS010], the entries for the “activity of T lymphocyte” value in assay [1] (setting [6]) and in assay [1] (setting [5]) were 66 ± 11 IU and 125 ± 17*^@^ IU, respectively.
In assay [3] (0.5 μg/kg i.p. once per day), VGMGQKDSY [CMS019] displayed a Survival days of 21.1 ± 5.8 days and a Survival index of 26.8%.

B1: IFN-γ: recombinant mouse interferon-γ, Beijing Biotech Inc.; positive control immunostimulant (protein, UniProt P01580 23-155, looked up)
Interferon gamma: HGTVIESLESLNNYFNSSGIDVEEKSLFLDIWRNWQKDGDMKILQSQIISFYLRLFEVLKDNQAISNNISVIESHLITTFFSNSKAKKDAFMSIAKFEVNNPQVQRQAFNELIRVVHQLLPESSLRKRKRSRC
The molecule B1 displayed a Survival days in assay [3] (setting [7]) of 15.6 ± 2.2 days. Besides, the “activity of T lymphocyte” value in assay [1] (setting [6]) is on record as 87 ± 15 IU; in assay [1] (peptide 5 μg/kg/day i.p. 15 days), 96 ± 14 IU; in assay [1] (setting [4]), 99 ± 16 IU; in assay [1] (setting [5]), 100 ± 18 IU. Moreover, the NK activity index in assay [2] (setting [7]) was found to be 20.9 ± 3.3%.
